Common to all, as to assay: biochemical
Holding throughout (parameters): Thermal shift (DSF, SYPRO Orange) Tm shift of recombinant kinase domains at 10 uM compound

The target of experiment [1] is CDKL1 (Homo sapiens, UniProt Q00532).
Procedure: (§1) S23 Thermal stability kinase selectivity. The assay was performed as previously described. 9,10 Briefly, recombinant protein kinase domains at a concentration of 2 μM were mixed with 10 μM compound in a buffer containing 20 mM HEPES, pH 7.5, and 500 mM NaCl. SYPRO Orange (5000×, Invitrogen) was added as a fluorescence probe (1 µl per mL). Subsequently, temperature-dependent protein unfolding profiles were measured using the QuantStudio™ 5 realtime PCR machine (Thermo Fisher). […] The temperature was raised with a step rate of 3°C per minute. Data points were analysed with the internal software (Thermal Shift SoftwareTM Version 1.4, Thermo Fisher) using the Boltzmann equation to determine the inflection point of the transition curve.
The target of experiment [2] is T1, EPHB1 (Homo sapiens, UniProt P54762).
T1 sequence (P54762 1-984): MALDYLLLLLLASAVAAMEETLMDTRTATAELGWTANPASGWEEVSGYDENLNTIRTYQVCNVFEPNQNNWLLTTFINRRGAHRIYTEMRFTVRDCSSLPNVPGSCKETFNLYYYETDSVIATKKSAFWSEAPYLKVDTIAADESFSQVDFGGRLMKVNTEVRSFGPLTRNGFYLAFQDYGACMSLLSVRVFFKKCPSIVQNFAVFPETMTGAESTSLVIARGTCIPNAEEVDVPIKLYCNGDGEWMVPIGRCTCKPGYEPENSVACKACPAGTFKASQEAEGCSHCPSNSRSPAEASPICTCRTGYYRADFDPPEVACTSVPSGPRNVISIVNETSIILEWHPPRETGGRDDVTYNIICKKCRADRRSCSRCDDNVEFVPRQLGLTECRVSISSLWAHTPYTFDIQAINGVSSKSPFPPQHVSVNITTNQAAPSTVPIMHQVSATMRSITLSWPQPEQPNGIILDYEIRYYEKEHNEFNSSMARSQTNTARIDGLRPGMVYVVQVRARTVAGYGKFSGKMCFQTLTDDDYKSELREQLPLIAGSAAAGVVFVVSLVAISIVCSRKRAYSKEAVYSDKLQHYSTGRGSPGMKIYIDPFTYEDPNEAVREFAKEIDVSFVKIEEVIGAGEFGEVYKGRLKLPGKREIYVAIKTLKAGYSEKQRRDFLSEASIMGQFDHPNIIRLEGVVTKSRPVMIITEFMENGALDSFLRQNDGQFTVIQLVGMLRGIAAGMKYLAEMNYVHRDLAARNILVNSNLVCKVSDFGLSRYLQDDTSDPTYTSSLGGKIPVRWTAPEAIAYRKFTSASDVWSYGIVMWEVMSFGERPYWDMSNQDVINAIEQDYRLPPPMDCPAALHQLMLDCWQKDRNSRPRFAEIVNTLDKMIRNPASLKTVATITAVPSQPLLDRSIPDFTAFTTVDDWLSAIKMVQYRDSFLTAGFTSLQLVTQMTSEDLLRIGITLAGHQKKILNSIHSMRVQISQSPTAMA
Procedure: as §1

The target of experiment [3] is SRPK1 (Homo sapiens, UniProt Q96SB4).
Sequence of SRPK1 (Q96SB4 whole entry): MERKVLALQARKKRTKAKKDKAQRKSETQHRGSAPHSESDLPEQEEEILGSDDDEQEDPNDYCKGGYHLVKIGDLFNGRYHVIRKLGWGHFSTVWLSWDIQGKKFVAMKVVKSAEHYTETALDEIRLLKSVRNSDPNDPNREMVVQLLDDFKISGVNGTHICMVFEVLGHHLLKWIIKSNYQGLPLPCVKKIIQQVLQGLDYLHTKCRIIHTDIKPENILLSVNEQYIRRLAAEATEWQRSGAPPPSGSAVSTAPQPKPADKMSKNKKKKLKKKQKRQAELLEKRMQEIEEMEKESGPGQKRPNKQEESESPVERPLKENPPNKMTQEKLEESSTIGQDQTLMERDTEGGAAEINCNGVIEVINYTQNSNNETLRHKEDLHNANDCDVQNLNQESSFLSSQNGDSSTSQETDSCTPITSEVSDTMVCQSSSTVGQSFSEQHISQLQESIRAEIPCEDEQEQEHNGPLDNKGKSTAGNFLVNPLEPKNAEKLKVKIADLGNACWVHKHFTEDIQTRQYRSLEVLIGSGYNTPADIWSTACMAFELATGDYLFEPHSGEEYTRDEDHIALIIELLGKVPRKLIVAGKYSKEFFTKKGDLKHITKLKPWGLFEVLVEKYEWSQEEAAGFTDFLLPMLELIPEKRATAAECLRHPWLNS
Procedure: as §1
The target of experiment [4] is T2, MST4 (Homo sapiens, UniProt Q9P289).
T2 construct: gene STK26
T2 sequence (Q9P289 whole entry): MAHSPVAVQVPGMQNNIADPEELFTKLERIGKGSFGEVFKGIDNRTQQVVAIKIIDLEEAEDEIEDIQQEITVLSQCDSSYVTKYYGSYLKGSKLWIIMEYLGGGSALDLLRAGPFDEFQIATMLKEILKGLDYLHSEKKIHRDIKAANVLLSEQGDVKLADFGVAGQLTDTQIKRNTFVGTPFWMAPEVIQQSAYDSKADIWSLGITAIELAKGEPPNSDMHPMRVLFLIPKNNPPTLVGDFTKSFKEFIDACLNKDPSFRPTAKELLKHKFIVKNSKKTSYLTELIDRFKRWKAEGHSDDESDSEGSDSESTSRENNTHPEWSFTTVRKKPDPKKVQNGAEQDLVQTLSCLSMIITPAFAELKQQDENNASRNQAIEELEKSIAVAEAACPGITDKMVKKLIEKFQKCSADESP
Procedure: as §1

Experiment [5] deals with T3, LOK (Homo sapiens, UniProt O94804).
T3 construct: gene STK10
T3 sequence (O94804 whole entry): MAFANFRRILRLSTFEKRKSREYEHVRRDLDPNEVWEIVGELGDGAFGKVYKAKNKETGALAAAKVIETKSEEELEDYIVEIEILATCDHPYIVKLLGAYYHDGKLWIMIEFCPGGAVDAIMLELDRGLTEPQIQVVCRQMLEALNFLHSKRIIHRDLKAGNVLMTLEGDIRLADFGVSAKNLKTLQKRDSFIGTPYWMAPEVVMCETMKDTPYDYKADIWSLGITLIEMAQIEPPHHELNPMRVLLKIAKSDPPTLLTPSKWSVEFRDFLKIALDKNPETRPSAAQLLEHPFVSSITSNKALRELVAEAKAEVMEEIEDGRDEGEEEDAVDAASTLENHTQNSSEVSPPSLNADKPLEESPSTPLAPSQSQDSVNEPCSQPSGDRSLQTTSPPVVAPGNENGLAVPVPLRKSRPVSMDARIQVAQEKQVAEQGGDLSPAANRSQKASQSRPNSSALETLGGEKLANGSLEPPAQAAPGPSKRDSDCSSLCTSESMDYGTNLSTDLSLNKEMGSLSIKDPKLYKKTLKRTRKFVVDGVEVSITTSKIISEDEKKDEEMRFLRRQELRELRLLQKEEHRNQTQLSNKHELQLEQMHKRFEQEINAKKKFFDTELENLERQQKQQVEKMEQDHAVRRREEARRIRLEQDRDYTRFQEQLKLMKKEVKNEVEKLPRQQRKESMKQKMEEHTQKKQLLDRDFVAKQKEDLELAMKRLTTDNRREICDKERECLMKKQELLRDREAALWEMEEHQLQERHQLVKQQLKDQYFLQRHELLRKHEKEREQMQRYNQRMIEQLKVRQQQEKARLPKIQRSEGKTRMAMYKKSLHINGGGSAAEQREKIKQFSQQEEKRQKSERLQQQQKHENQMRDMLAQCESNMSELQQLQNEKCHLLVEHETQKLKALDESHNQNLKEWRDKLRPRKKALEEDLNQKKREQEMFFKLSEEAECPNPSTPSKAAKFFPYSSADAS
Procedure: as §1

In experiment [6] the target is T4, Haspin (Homo sapiens, UniProt Q8TF76).
T4 sequence (Q8TF76 1-798): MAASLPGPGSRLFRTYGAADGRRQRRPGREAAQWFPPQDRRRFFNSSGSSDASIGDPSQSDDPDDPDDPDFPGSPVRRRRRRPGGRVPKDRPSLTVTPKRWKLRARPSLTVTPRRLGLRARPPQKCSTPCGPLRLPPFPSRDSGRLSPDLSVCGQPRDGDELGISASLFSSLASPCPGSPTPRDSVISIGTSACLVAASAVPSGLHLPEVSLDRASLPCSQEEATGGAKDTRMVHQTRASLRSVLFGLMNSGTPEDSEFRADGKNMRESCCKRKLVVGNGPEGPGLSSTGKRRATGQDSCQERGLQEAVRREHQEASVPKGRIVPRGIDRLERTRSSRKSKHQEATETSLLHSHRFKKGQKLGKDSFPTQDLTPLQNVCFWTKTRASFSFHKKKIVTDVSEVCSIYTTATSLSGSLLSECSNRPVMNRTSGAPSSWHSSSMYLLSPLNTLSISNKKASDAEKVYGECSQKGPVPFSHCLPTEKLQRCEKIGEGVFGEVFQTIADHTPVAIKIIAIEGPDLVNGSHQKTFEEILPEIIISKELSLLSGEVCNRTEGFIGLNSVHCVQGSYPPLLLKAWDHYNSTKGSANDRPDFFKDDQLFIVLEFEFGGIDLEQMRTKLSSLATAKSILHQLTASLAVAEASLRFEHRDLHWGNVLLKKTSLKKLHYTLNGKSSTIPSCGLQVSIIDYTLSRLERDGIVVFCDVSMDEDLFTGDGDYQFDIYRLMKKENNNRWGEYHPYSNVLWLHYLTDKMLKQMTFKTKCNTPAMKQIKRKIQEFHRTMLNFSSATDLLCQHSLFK
Procedure: as §1

Where two headings read alike, the source gives them in different places.

Sequence of CDKL1 (Q00532 whole entry): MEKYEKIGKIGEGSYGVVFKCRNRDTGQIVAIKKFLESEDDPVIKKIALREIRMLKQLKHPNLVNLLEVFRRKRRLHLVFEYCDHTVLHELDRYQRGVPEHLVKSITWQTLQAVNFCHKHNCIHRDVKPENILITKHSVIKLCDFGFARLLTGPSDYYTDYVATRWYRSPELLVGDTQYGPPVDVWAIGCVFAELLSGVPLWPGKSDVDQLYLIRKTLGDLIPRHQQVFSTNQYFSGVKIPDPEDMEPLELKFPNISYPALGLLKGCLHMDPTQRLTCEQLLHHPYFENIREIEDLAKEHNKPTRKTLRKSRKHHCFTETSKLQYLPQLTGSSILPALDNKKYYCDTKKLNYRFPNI

With `CC(C)Oc1ccc2ccn(-c3cncc(-c4ccc(C(=O)O)cc4)n3)c2c1` [6c], the ΔTm at 10 µM was 3 °C in experiment [1] (read-out: 6c); 2 °C in experiment [2] (read-out: 6c); 6 °C in experiment [3] (read-out: 6c); -4 °C in experiment [4] (read-out: 6c); 4 °C in experiment [5] (read-out: 6c); 0 °C in experiment [6] (read-out: 6c).
For the molecule `COc1ccc(OC(C)C)cc1Nc1cncc(-c2ccc(C(=O)O)cc2)n1` [7c], the ΔTm at 10 µM in experiment [1] (read-out: 7c) was 1 °C; in experiment [2] (read-out: 7c), 1 °C; in experiment [3] (read-out: 7c), 3 °C; in experiment [4] (read-out: 7c), -1 °C; in experiment [5] (read-out: 7c), 4 °C; in experiment [6] (read-out: 7c), 5 °C.
As to `CC(C)Nc1ccc2cnn(-c3cncc(-c4ccc(C(=O)O)cc4)n3)c2c1` [compound 2, 2], the ΔTm at 10 µM in experiment [1] (read-out: 2) amounted to 2 °C; in experiment [2] (read-out: 2) it was 2 °C; in experiment [3] (read-out: 2), 6 °C; in experiment [4] (read-out: 2), 3 °C; in experiment [5] (read-out: 2), 8 °C; in experiment [6] (read-out: 2), 3 °C.

Values taken from publication doi:10.1101/2023.12.04.569845, “Identification of 4-(6-((2-methoxyphenyl)amino)pyrazin-2-yl)benzoic acids as CSNK2A inhibitors with antiviral activity and improved selectivity over PIM3” (bioRxiv, 2023).
